Reference: patent US12318382B2, “Methods of treating rheumatic diseases using trimetazidine-based compounds” (IMBRIA PHARMACEUTICALS, INC., priority 2018, dated 2025)

Assay: Stability of CV-8972 in aqueous solution at different concentrations and pH
Assay type: physicochemical
Experimental: The stability of CV-8972 was analyzed. Aqueous samples containing CV-8972 at different concentrations and pH were incubated for various periods and analyzed.
Form A of CV-8972 were analyzed for stability in aqueous solution. Aqueous samples containing CV-8972 at different concentrations and pH were incubated for various periods and analyzed.

Retention Time 5.6 (purity of CV-8972) (276-MBA-172 2 mg/mL pH 6 (Form A), 0 hrs): 98.01
Retention Time 5.6 (purity of CV-8972) (276-MBA-172 2 mg/mL pH 6 (Form A), 1 hrs): 97.22
Retention Time 5.6 (purity of CV-8972) (276-MBA-172 2 mg/mL pH 6 (Form A), 4 hrs): 97.01
Retention Time 5.6 (purity of CV-8972) (276-MBA-172 2 mg/mL pH 6 (Form A), 6 hrs): 96.51
Retention Time 5.6 (purity of CV-8972) (276-MBA-172 2 mg/mL pH 7 (Form A), 0 hrs): 97.53
Retention Time 5.6 (purity of CV-8972) (276-MBA-172 2 mg/mL pH 7 (Form A), 1 hrs): 95.06
Retention Time 5.6 (purity of CV-8972) (276-MBA-172 2 mg/mL pH 7 (Form A), 4 hrs): 93.7
Retention Time 5.6 (purity of CV-8972) (276-MBA-172 2 mg/mL pH 7 (Form A), 6 hrs): 92.12
Retention Time 5.6 (purity of CV-8972) (276-MBA-172 2 mg/mL pH 7 (Form A), 22 hrs): 91.07
Retention Time 5.6 (purity of CV-8972) (276-MBA-172 10 mg/mL pH 6 (Form A), 0 hrs): 95.24
Retention Time 5.6 (purity of CV-8972) (276-MBA-172 10 mg/mL pH 6 (Form A), 1 hrs): 93.43
Retention Time 5.6 (purity of CV-8972) (276-MBA-172 10 mg/mL pH 6 (Form A), 4 hrs): 91.82
Retention Time 5.6 (purity of CV-8972) (276-MBA-172 10 mg/mL pH 6 (Form A), 6 hrs): 91.8
Retention Time 5.6 (purity of CV-8972) (276-MBA-172 10 mg/mL pH 6 (Form A), 22 hrs): 89.66
Retention Time 5.6 (purity of CV-8972) (276-MBA-172 10 mg/mL pH 7 (Form A), 0 hrs): 92.85
Retention Time 5.6 (purity of CV-8972) (276-MBA-172 10 mg/mL pH 7 (Form A), 1 hrs): 89.05
Retention Time 5.6 (purity of CV-8972) (276-MBA-172 10 mg/mL pH 7 (Form A), 4 hrs): 86.8
Retention Time 5.6 (purity of CV-8972) (276-MBA-172 10 mg/mL pH 7 (Form A), 6 hrs): 84.79
Retention Time 5.6 (purity of CV-8972) (289-MBA-15-A 2 mg/mL pH 6 (Form B), 0 hrs): 97.48
Retention Time 5.6 (purity of CV-8972) (289-MBA-15-A 2 mg/mL pH 6 (Form B), 1 hrs): 95.1
Retention Time 5.6 (purity of CV-8972) (289-MBA-15-A 2 mg/mL pH 6 (Form B), 4 hrs): 92.45
Retention Time 5.6 (purity of CV-8972) (289-MBA-15-A 2 mg/mL pH 6 (Form B), 6 hrs): 90.65
Retention Time 5.6 (purity of CV-8972) (289-MBA-15-A 2 mg/mL pH 6 (Form B), 22 hrs): 89.15
Retention Time 5.6 (purity of CV-8972) (289-MBA-15-A 2 mg/mL pH 7 (Form B), 0 hrs): 97.48
Retention Time 5.6 (purity of CV-8972) (289-MBA-15-A 2 mg/mL pH 7 (Form B), 1 hrs): 95.46
Retention Time 5.6 (purity of CV-8972) (289-MBA-15-A 2 mg/mL pH 7 (Form B), 4 hrs): 93.92
Retention Time 5.6 (purity of CV-8972) (289-MBA-15-A 10 mg/mL pH 6 (Form B), 0 hrs): 95.36
Retention Time 5.6 (purity of CV-8972) (289-MBA-15-A 10 mg/mL pH 6 (Form B), 1 hrs): 94.81
Retention Time 5.6 (purity of CV-8972) (289-MBA-15-A 10 mg/mL pH 6 (Form B), 4 hrs): 94.69
Retention Time 5.6 (purity of CV-8972) (289-MBA-15-A 10 mg/mL pH 6 (Form B), 6 hrs): 94.39
Retention Time 5.6 (purity of CV-8972) (289-MBA-15-A 10 mg/mL pH 6 (Form B), 22 hrs): 93.93
Retention Time 5.6 (purity of CV-8972) (289-MBA-15-A 10 mg/mL pH 7 (Form B), 0 hrs): 91.5
Retention Time 5.6 (purity of CV-8972) (289-MBA-15-A 10 mg/mL pH 7 (Form B), 1 hrs): 86.18
Retention Time 5.6 (purity of CV-8972) (289-MBA-15-A 10 mg/mL pH 7 (Form B), 4 hrs): 82.36
Retention Time 5.6 (purity of CV-8972) (289-MBA-15-A 10 mg/mL pH 7 (Form B), 6 hrs): 79.37
SMILES: COc1ccc(CN2CCN(CCOC(=O)c3cccnc3)CC2)c(OC)c1OC [CV-8972, 2-(4-(2,3,4-trimethoxybenzyl)piperazin-1-yl)ethyl nicotinate]
